These compounds were tested against T1, human DGAT1 (Homo sapiens, UniProt O75907) (assay: Inhibition of DGAT1 activity, FlashPlate assay with DGAT1 membrane preparations and substrate micelles). Details: pIC50 = -logIC50, IC50 values expressed in M.
T1 construct: FLAG (N); made in house; host or cells: SF9 insect cells (pFastBac baculovirus); total cell membranes
T1 sequence (O75907 1-488): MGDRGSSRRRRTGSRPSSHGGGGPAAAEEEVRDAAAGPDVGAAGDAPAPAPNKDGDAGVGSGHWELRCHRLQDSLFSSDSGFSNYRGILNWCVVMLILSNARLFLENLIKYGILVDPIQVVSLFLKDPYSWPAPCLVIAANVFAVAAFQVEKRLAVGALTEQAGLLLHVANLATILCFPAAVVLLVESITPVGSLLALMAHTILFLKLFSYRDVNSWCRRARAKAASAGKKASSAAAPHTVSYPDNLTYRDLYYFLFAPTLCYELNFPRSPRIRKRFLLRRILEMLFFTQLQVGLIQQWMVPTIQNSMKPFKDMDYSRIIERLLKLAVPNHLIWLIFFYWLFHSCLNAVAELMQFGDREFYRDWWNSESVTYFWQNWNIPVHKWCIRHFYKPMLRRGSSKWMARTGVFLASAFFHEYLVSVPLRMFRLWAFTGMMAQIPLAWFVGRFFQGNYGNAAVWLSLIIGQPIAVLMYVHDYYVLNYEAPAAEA
Assay type: biochemical
Source text: A) Measurement of Inhibition of DGAT1 Activity by the Present Compounds
The inhibiting activity of the present compounds on DGAT1 activity was screened in a single well procedure assay using DGAT1 comprising membrane preparations and DGAT1 substrate comprising micelles and determining formed radio-active triacylglycerol coming in close proximity of a flashplate surface by radio luminescence.
Said assay is described in full detail in WO2006/067071, the content of which is incorporated herein by reference.
By DGAT1 activity is meant the transfer of coenzyme A activated fatty acids to the 3-position of 1,2-diacylglycerols, thus forming a triglyceride molecule, by enzyme DGAT1.
human DGAT1 (NM012079.2) was cloned into the pFastBac vector, containing translation start, a FLAG-tag at the N-terminus as described in literature and a viral Kozak sequence (AAX) preceding the ATG to improve expression in insect cells. Expression was done as described in literature (Cases, S., Smith, S. J., Zheng, Y., Myers H. M., Lear, S. R., Sande, E., Novak, S., Collins, C., Welch, C. B., Lusis, A. J., Erickson, S. K. and Farese, R. V. (1998) Proc. Natl. Acad. Sci. USA 95, 13018-13023.) using SF9 cells.
72 h transfected SF9 cells were collected by centrifugation (13000 rpm-15 min-4° C.) and lysed in 2×500 ml lysisbuffer (0.1M Sucrose, 50 mM KCl, 40 mM KH2PO4, 30 mM EDTA pH 7.2. Cells were homogenized by cell disruptor. After centrifugation 1380 rpm-15 min-4° C. (SN discarded), pellet was resuspended in 500 ml lysisbuffer and total cell membranes collected by ultracentrifugation at 34000 rpm(100 000 g) for 60 min (4° C.). The collected membranes were resuspended in lysis buffer, divided in aliquots and stored with 10% glycerol at −80° C. until use.
Add 1 ml dioleoyl-sn-glycerol (10 mg/ml) to 10 ml of L-α-phosphatidylcholine (1 mg/ml) and 10 ml of L-α-phosphatidyl-L-serine (1 mg/ml) in a thick glass recipient. Evaporate under nitrogen and put on ice for 15 minutes. Reconstitute in 10 ml Tris/HCl (10 mM, pH 7.4) by sonication on ice. The sonification process consists of sonification cycles of 10 seconds in the sonification bath followed by 10 seconds cool down on ice and repeating this sonification cycle till a homogeneous solution is obtained (takes about 15 minutes). The thus obtained micelles are stored at −20° C. till later use and contain DAG at a final concentration of 1.61 mM.
c) Substrate mix (for 1 384 well plate=3840 μl) • 612 μl micelles stock (51 μM final) • 16.6 μl oleoylCoA 9.7 mM • 23 μl [^3H]-oleoylCoA (49 Ci/mmol, 500 μCi/ml) • 3188.4 μl Tris pH 7.4, 10 mM
d) Enzyme mix (for 1 384 well plate=3520 μl) (5 μg/ml) • Add 11.73 μl of DGAT membrane stock (1500 μg/ml stock) to 3508 μl assay buffer.
e) Stop mix (for 1 384 well plate=7.68 ml) (250 mM) • Add 384 μl of N-ethylmaleimide (5M) to 3.456 ml DMSO 100%, and further dilute 3.84 ml of said solution with 3.84 ml DMSO 10%.
DGAT activity in membrane preparations was assayed in 50 mM Tris-HCl (pH 7.4), 150 mM MgCl2, 1 mM EDTA and 0.2% BSA, containing 50 μM DAG, 32 μg/ml PC/PS and 8.4 μM [^3H]-oleoylCoA (at a specific activity of 30 nCi/well) in a final volume of 50 μl in 384-well format using the red shifted Basic Image FlashPlate™ (Perkin Elmer Cat.No. SMP400).
In detail, 10 μl enzyme mix and 10 μl substrate mix were added to 30 μl of assay buffer, optionally in the presence of 1 μl DMSO (blank and controls) or 1 μl of the compound to be tested. This reaction mixture was incubated for 120 minutes at 37° C. and the enzymatic reaction stopped by adding 20 μl of the stop mix. The plates were sealed and the vesicles allowed to settle overnight at room temperature. Plates were centrifuged for 5 minutes at 1500 rpm and measured in Leadseeker. […]

| Compound | IC50 [nM] |
| --- | --- |
| CC(C)(C)OC(=O)NCCC(=O)Nc1ccc(C2CCN(C(=O)Nc3c(Cl)cccc3Cl)CC2)cc1 [Compound 214] | 97.7 |
| CC(C)C(CC(=O)Nc1ccc(C2CCN(C(=O)Nc3c(Cl)cccc3Cl)CC2)cc1)NC(=O)OC(C)(C)C (centres unmarked) [Compound 215] | 58.9 |
| CC(C)(C)OC(=O)NC1(C(=O)Nc2ccc(C3CCN(C(=O)Nc4c(Cl)cccc4Cl)CC3)cc2)CCCC1 [Compound 216] | 34.7 |
| C#CCC(NC(=O)OC(C)(C)C)C(=O)Nc1ccc(C2CCN(C(=O)Nc3c(Cl)cccc3Cl)CC2)cc1 (centres unmarked) [Compound 220] | 19.1 |
| O=C(NCc1cccc(N2CCCC2)c1)c1ccc(N2CCN(C(=O)Nc3c(Cl)cc(CN4CCCC4)cc3Cl)CC2)cc1 [Compound 224] | 8.32 |
| O=C(NCc1cccc(N2CCCC2)c1)c1ccc(N2CCN(C(=O)Nc3c(Cl)cc(CCN4CCCC4)cc3Cl)CC2)cc1 [Compound 227] | 11.7 |
| O=C(NCc1ccc2c(c1)OCO2)c1ccc(N2CCN(C(=O)Cc3c(Cl)cccc3Cl)CC2)cc1 [Compound 235] | 53.7 |
| O=C(NCC12CC3CC(CC(C3)C1)C2)c1ccc(N2CCN(C(=O)Nc3c(Cl)cc(CN4CCCC4)cc3Cl)CC2)cc1 [Compound 243] | 129 |
| COc1ccc(CNC(=O)c2ccc(N3CCN(C(=O)Nc4c(Cl)cncc4Cl)CC3)cc2)cc1 [Compound 245] | 145 |
| O=C(NCc1cccc(F)c1)c1ccc(N2CCN(C(=O)Cc3c(Cl)cccc3Cl)CC2)cc1 [Compound 247] | 155 |
| O=C(NCc1ccccc1F)c1ccc(N2CCN(C(=O)Cc3c(Cl)cccc3Cl)CC2)cc1 [Compound 249] | 162 |
| CC(NC(=O)c1ccc(N2CCN(C(=O)Cc3c(Cl)cccc3Cl)CC2)cc1)c1ccc(F)cc1 (centres unmarked) [Compound 250] | 174 |
| O=C(NCc1cc(F)cc(F)c1)c1ccc(N2CCN(C(=O)Cc3c(Cl)cccc3Cl)CC2)cc1 [Compound 252] | 234 |
| O=C(NCc1cccc(N2CCCC2)c1)c1ccc(N2CCN(C(=O)Cc3c(Cl)cc(CN4CCCC4)cc3Cl)CC2)cc1 [Compound 267] | 107 |
| O=C(CCCc1ccccc1)Nc1ccc(N2CCN(C(=O)Nc3c(Cl)cc(CN4CCOCC4)cc3Cl)CC2)cc1 [Compound 269] | 2.04 |
| COCCNC(C)c1cc(Cl)c(NC(=O)N2CCN(c3ccc(NC(=O)CCCc4ccccc4)cc3)CC2)c(Cl)c1 (centres unmarked) [Compound 274] | 3.98 |
| COCCN1CCN(C(=O)c2cc(Cl)c(NC(=O)N3CCN(c4ccc(NC(=O)CCCc5ccccc5)cc4)CC3)c(Cl)c2)CC1 [Compound 275] | 4.17 |
| O=C(CC(=O)OCc1ccccc1)Nc1ccc(N2CCN(C(=O)Nc3c(Cl)cccc3Cl)CC2)cc1 [Compound 277] | 4.57 |
| CC(C)(C)OC(=O)CCC(=O)Nc1ccc(N2CCN(C(=O)Nc3c(Cl)cccc3Cl)CC2)cc1 [Compound 279] | 6.76 |
| CC(C)(C)OC(=O)CC(=O)Nc1ccc(N2CCN(C(=O)Nc3c(Cl)cccc3Cl)CC2)cc1 [Compound 282] | 7.76 |
| CN(C)C(=O)c1cc(Cl)c(NC(=O)N2CCN(c3ccc(NC(=O)CCCc4ccccc4)cc3)CC2)c(Cl)c1 [Compound 284] | 8.13 |
| CN1CCN(C(=O)c2cc(Cl)c(NC(=O)N3CCN(c4ccc(NC(=O)CCCc5ccccc5)cc4)CC3)c(Cl)c2)CC1 [Compound 290] | 10.5 |
| COCCN(C)C(=O)c1cc(Cl)c(NC(=O)N2CCN(c3ccc(NC(=O)CCCc4ccccc4)cc3)CC2)c(Cl)c1 [Compound 291] | 10.5 |

Other lines, results leading:

| IC50 [nM] | Compound |
| --- | --- |
| 12.3 | O=C(CCCc1ccccc1)Nc1ccc(N2CCN(C(=O)Nc3c(Cl)cc(C(=O)N4CCOCC4)cc3Cl)CC2)cc1 [Compound 294] |
| 13.8 | O=C(CCCc1ccccc1)Nc1ccc(N2CCN(C(=O)C(O)c3ccccc3Br)CC2)cc1 (centres unmarked) [Compound 295] |
| 14.8 | CN(C)C(=O)CN(C)C(=O)c1cc(Cl)c(NC(=O)N2CCN(c3ccc(NC(=O)CCCc4ccccc4)cc3)CC2)c(Cl)c1 [Compound 296] |
| 15.1 | CCOC(=O)CCCC(=O)Nc1ccc(N2CCN(C(=O)Nc3c(Cl)cccc3Cl)CC2)cc1 [Compound 297] |
| 20 | COc1ccc(CC(=O)Nc2ccc([N+]3([O-])CCN(C(=O)Nc4c(Cl)cc(C[N+]5([O-])CCCC5)cc4Cl)CC3)cc2)cc1 [Compound 300] |
| 20.9 | O=C(CCC(=O)OCc1ccccc1)Nc1ccc(N2CCN(C(=O)Nc3c(Cl)cccc3Cl)CC2)cc1 [Compound 302] |
| 21.4 | O=C(CCCc1ccccc1)Nc1ccc(N2CCN(C(=O)Nc3c(Cl)cc(C(=O)NCc4ccncc4)cc3Cl)CC2)cc1 [Compound 303] |
| 26.3 | COCCNC(=O)c1cc(Cl)c(NC(=O)N2CCN(c3ccc(NC(=O)CCCc4ccccc4)cc3)CC2)c(Cl)c1 [Compound 306] |
| 31.6 | COc1ccc(CC(=O)Nc2ccc(N3CCN(C(=O)Oc4c(Cl)cccc4Cl)CC3)cc2)cc1 [Compound 308] |
| 35.5 | O=C(CCCc1ccccc1)Nc1ccc(N2CCN(C(=O)C(O)c3ccc(F)cc3Cl)CC2)cc1 (centres unmarked) [Compound 309] |
| 37.2 | O=C(CCCc1ccccc1)Nc1ccc(N2CCN(C(=O)Nc3c(Cl)cc(C(=O)NCCN4CCOCC4)cc3Cl)CC2)cc1 [Compound 310] |
| 51.3 | CC(=O)NCCNC(=O)c1cc(Cl)c(NC(=O)N2CCN(c3ccc(NC(=O)CCCc4ccccc4)cc3)CC2)c(Cl)c1 [Compound 314] |
| 58.9 | O=C(CCCc1ccccc1)Nc1ccc(N2CCN(C(=O)C(O)c3c(Cl)cccc3Cl)CC2)cc1 (centres unmarked) [Compound 315] |
| 91.2 | CN(C)CCNC(=O)c1cc(Cl)c(NC(=O)N2CCN(c3ccc(NC(=O)CCCc4ccccc4)cc3)CC2)c(Cl)c1 [Compound 321] |
| 115 | O=C(CCCc1ccccc1)Nc1ccc(N2CCN(C(=O)C(O)c3ccc(F)cc3F)CC2)cc1 (centres unmarked) [Compound 325] |
| 126 | O=C(CCCc1ccccc1)Nc1ccc(N2CCN(C(=O)Nc3c(Cl)cccc3Cl)CC2)c(CO)c1 [Compound 326] |
| 129 | O=C(CCCc1ccccc1)Nc1ccc(N2CCN(C(=O)C(O)c3cccc(F)c3F)CC2)cc1 (centres unmarked) [Compound 327] |
| 200 | O=C(CCCc1ccccc1)Nc1ccc(N2CCN(C(=O)C(O)c3c(F)cccc3F)CC2)cc1 (centres unmarked) [Compound 330] |
| 692 | CCC(C(=O)Nc1ccc(N2CCN(C(=O)Cc3ccccc3C)CC2)cc1)c1ccccc1 (centres unmarked) [Compound 336] |
| 2450 | COc1ccc(CC(=O)Nc2ccc(N3CCN(C(=O)C(N)c4ccccc4Cl)CC3)cc2)cc1 (centres unmarked) [Compound 337] |
| 3550 | O=C(CCCc1ccccc1)Nc1ccc(N2CCN(C(=O)C(O)c3cccc(O)c3)CC2)cc1 (centres unmarked) [Compound 340] |

— patent publication US8981094B2, “Piperidine/piperazine derivatives” (Janssen Pharmaceutica N.V., priority 2007, dated 2015)
